Experimental data as given in US12344598B2, “Bis(diazirine) derivatives as photo-crosslinker for treating corneal ectatic disorders” (Avedro, Inc., priority 2019, dated 2025).
Marks after values point to notes of the source that are not given here.

What was measured:
cornea [1] = experiment: Porcine Eye Corneal Flattening Assay; settings: overall change in keratometry (Km) of central 3 mm zone; UVA 4 mm circle, 365 nm, 30 mW/cm^2, CW, 8.1 min, 15 J total dose, normal (21% O2) atmosphere, 37.0° C.
Method: Porcine whole globes in saline at 4° C. were warmed to room temperature. The corneas were then de-epithelialized with a dulled scalpel blade and the eyes placed into custom movable eye holders in a horizontal position with the cornea facing upward. The eye holders were then positioned inside an enclosed chamber that allows for the control of atmosphere, temperature and humidity (typically a water bath at 37.0° C.). IOP is maintained at a constant pressure by the insertion of a blood bank buffered saline line from an IV bag at a standard height inserted into each eye via a syringe needle. 5% Dextran T500 in blood bank buffered saline is dropped onto the surface of the cornea of each eye every 90 sec for 2 hours to allow the eyes to stabilize. […] The test eye is then orientated in a vertical position and the pre-treatment surface keratometry of the cornea measured using a Pentacam® HR device fine cornea 100 scan. […] After a further 1.5 hours during which the 5% dextran drops are resumed the eye is orientated back to the vertical position and the post-treatment surface keratometry of the cornea measured using a Pentacam® HR device fine cornea 100 scan as before. The difference map between the pre and post treatment corneal images is obtained and the overall change in keratometry (Km) of the central 3 mm zone recorded as a change in diopters. […]

cornea [2] = experiment: Porcine Eye Corneal Stiffening Assay; settings: UVA 9 mm circle, 365 nm, 30 mW/cm^2, CW, 8.1 min, 15 J, 21% O2, 37.0° C., untreated cornea = 10.1
Method: Porcine whole globes in saline at 4° C. were warmed to room temperature. The eyes were either immediately placed into custom movable eye holders in a horizontal position with the cornea facing upward or were first de-epithelialized with a dulled scalpel blade before being placed in the holder. The eye holders were then positioned inside an enclosed chamber that allows for the control of atmosphere, temperature and humidity (typically a water bath at 37.0° C.). A solution of test compound held in place by a small rubber O-ring on the center of the cornea is then allowed to soak into the cornea surface of the test eye. After a set soaking time (typically 10 minutes) the O-ring is removed and any excess test solution washed away with saline. A specific pattern of UVA light at 365 nm is administered to the test eye cornea over a desired dosing period. A corneal flap of desired thickness (typically 200 μm is then excised from the eyes using a femtosecond laser (Zeimer, LDV1). The corneal flap is placed in saline at ambient temperature for 20 minutes and then mounted onto a biaxial extensiometer (CellScale Biotester5000, Waterloo, ON), using biorake attachments (5 tines spanning a width of 3.5 mm). The corneal flap is stretched at a constant rate of 4 μm/s in saline at 37° C. until sample failure. The maximum slope of the force vs distance curve is calculated and compared to that obtained from an untreated cornea.
The following notes provide further clarification regarding certain steps in the assay: • (1) A solution of the test compound (typically 0.22% w/v in saline) is held in place by a small rubber O-ring on the center of the cornea is then allowed to soak into the cornea surface of the test eye. After a set soaking time of 5-30 minutes (typically 10 minutes) the O-ring is removed and any excess test solution washed away with saline. • (2) A corneal flap of desired thickness and diameter (typically 200 μm thick by 8 mm diameter) is then excised from the eyes using a femtosecond laser (Zeimer, LDV1). The corneal flap is either placed in saline at ambient temperature for 20 minutes and then mounted in saline onto a biaxial extensiometer (CellScale Biotester5000, Waterloo, ON) or mounted directly onto the tester in 5% Dextran T500/saline. • (3) Biorake attachments (5 tines spanning a width of 3.5 mm) are used to hold the flap as it is stretched at 37° C. and a constant rate of 4 μm/s in both X (5 N load cell) and Y (10 N load cell) directions simultaneously. • (4) The maximum slope of the force vs distance curve corresponds to the stiffening value. It is compared to that obtained from an untreated cornea.

[3] = maximum slope of force vs distance curve of corneal flap
[4] = eyes were not de-epithelialized prior to treatment

SMILES | Refractive Change (D) (cornea [1]) | Max slope (cornea [2]; [3]) | Max slope (cornea [2]; [4])
CC1(CCNCC(=O)NCCC2(C)N=N2)N=N1 [Example 1] | −0.32 | 11.28 | 
CC1(CCNCCC(=O)N[C@@H](CC(=O)O)C(=O)OCCC2(C)N=N2)N=N1 [Example 6] |  |  | 10.88^#
CC1(CCNCCC(=O)N[C@@H](CCCCNC(=N)N)C(=O)NCCC2(C)N=N2)N=N1 [Example 10] | −0.64 |  | 10.14^#
CC1(CCN(CCC2(C)N=N2)CC(=O)O)N=N1 [Example 13] |  | 12.38 | 
CC1(CCC(=O)N(CCC2(C)N=N2)CC(=O)O)N=N1 [Example 14] |  | 10.66 | 10.5
CC1(CCNCC(=O)N[C@@H](CC(=O)O)C(=O)NCCC2(C)N=N2)N=N1 [Example 17] |  | 10.13 | 
CC1(CCC(=O)N(CCC2(C)N=N2)[C@@H]2CCNC2)N=N1 [Example 23] |  |  | 10.68^#
